# Results as given in patent US20260249027A1, “METERED DOSE INHALERS AND HIGH-DOSE SUSPENSIONS” (Kindeva Drug Delivery L.P., priority 2023, published 2026).
# How the values were obtained:
# Type in all cases: physicochemical
# [1] = Aerodynamic particle size measurement of sodium cromoglycate pMDI suspensions (Next Generation impactor)
# From the text: (§1) In general, aerosols with mass median aerodynamic diameters (MMAD) of at least 1 μm but less than 5 μm in size are suitable for effective deep lung deposition for therapeutic effect. Herein, fine particle fraction (FPF) is defined as the percentage of the ex-actuator delivered API having a MMAD of less than 5 μm when tested in vitro. Herein, “ex-actuator” delivered dose is used to describe the amount of API delivered past the actuator of a pMDI. Therefore, an aerosol with a high FPF is typically suitable for deep lung deposition.
# (§2) In the following examples, dose consistency was determined by in vitro measurement of single actuation dose content at start, middle and end of pMDI unit life in line with U.S. Pharmacopeia (USP)<601>, using a flow rate of 28.3 L/min and apparatus A. Aerodynamic particle size distribution of the pMDI suspension aerosols was measured at start of unit life in line with U.S. Pharmacopeia (USP)<601> using a Next Generation impactor without pre-separator (apparatus 6) and a flow rate of 30 L/min.
# (§3) A first set of suspensions included no ethanol. A second set of suspensions included 2% ethanol by weight.
# (§4) In total, ten suspension pMDI formulations were prepared in triplicate with sufficient fill weight to provide 60 actuations. Each suspension was filled into Kindeva FEP coated canisters, crimped with a Kindeva 50-μL valve. Each pMDI unit was sonicated for at least 10 minutes to disperse the suspended drug and tested with a Kindeva actuator having an exit orifice diameter (EOD) of 0.4 mm
# (§5) The mass median aerodynamic diameter (MMAD) and fine particle fraction (FPF) of each pMDI unit were measured by Next Generation cascade impaction (N=3) for each pMDI suspension.
# [2] = Through life dose consistency of sodium cromoglycate pMDI suspensions (USP <601>, apparatus A)
# Description: as §2, §3
# as §4, with “mm.” for “mm”
# [3] = Aerodynamic particle size measurement of salbutamol sulfate pMDI suspensions (Next Generation impactor)
# From the text: as §1, §2
# as §4, with “six” for “ten”, “mm.” for “mm”
# as §5
# [4] = nominal ex-valve 0.5 mg/act, HFA-152a
# [5] = nominal ex-valve 0.5 mg/act, HFA-152a/2% EtOH (w/w)
# [6] = nominal ex-valve 0.5 mg/act, HFO-1234ze(E)
# [7] = nominal ex-valve 0.5 mg/act, HFO-1234ze(E)/2% EtOH (w/w)
# [8] = nominal ex-valve 1.0 mg/act, HFA-152a
# [9] = nominal ex-valve 1.0 mg/act, HFA-152a/2% EtOH (w/w)
# [10] = nominal ex-valve 1.0 mg/act, HFO-1234ze(E)
# [11] = nominal ex-valve 1.0 mg/act, HFO-1234ze(E)/2% EtOH (w/w)
# [12] = nominal ex-valve 2.0 mg/act, HFA-152a
# [13] = nominal ex-valve 2.0 mg/act, HFO-1234ze(E)
compound,measurement,setting,value
O=C(O)c1cc(=O)c2c(OCC(O)COc3cccc4oc(C(=O)O)cc(=O)c34)cccc2o1 [sodium cromoglycate],"MMAD values of aerosols, suitability","[1]; HFA-152a or HFO-1234ze(E), with and without ethanol, in-vitro",in an appropriate respirable range
same,FPF and MMAD without ethanol compared with corresponding suspensions with 2% ethanol by weight,"[1]; HFA-152a or HFO-1234ze(E), all nominal doses",consistently produced greater FPFs and smaller MMADs
same,Mean FPF,[1]; [4],33.0%
same,Mean MMAD,[1]; [4],3.59 μm
same,Mean FPF,[1]; [5],29.5%
same,Mean MMAD,[1]; [5],3.92 μm
same,Mean FPF,[1]; [6],41.3%
same,Mean MMAD,[1]; [6],3.41 μm
same,Mean FPF,[1]; [7],34.1%
same,Mean MMAD,[1]; [7],3.77 μm
same,Mean FPF,[1]; [8],28.2%
same,Mean MMAD,[1]; [8],3.85 μm
same,Mean FPF,[1]; [9],25.2%
same,Mean MMAD,[1]; [9],4.38 μm
same,Mean FPF,[1]; [10],34.7%
same,Mean MMAD,[1]; [10],3.72 μm
same,Mean FPF,[1]; [11],30.9%
same,Mean MMAD,[1]; [11],4.13 μm
same,Mean FPF,[1]; [12],24.7%
same,Mean MMAD,[1]; [12],4.39 μm
same,Mean FPF,[1]; [13],30.7%
same,Mean MMAD,[1]; [13],4.23 μm
same,FPF and MMAD in HFO-1234ze(E) compared with corresponding suspensions in HFA-152a,[1]; with or without ethanol,consistently produced greater FPFs and generally smaller MMADs
same,effect of addition of ethanol on through unit life ex-actuator delivered dose consistency,"[2]; 2% ethanol by weight, HFA-152a or HFO-1234ze(E)",did not always substantially improve
same,through unit life ex-actuator delivered dose consistency,[2]; HFA-152a or HFO-1234ze(E) with and without 2% ethanol by weight,relatively consistent
same,MoL mean delivered dose,[2]; [4],363.8 μg/act
same,SoL mean delivered dose,[2]; [4],611.8 μg/act
same,TL mean delivered dose,[2]; [4],427.8 μg/act
same,EoL mean delivered dose,[2]; [5],313.6 μg/act
same,MoL mean delivered dose,[2]; [5],331.6 μg/act
same,SoL mean delivered dose,[2]; [5],675.8 μg/act
same,TL mean delivered dose,[2]; [5],440.3 μg/act
same,EoL mean delivered dose,[2]; [6],158.7 μg/act
same,MoL mean delivered dose,[2]; [6],354.1 μg/act
same,SoL mean delivered dose,[2]; [6],419.4 μg/act
same,TL mean delivered dose,[2]; [6],310.7 μg/act
same,EoL mean delivered dose,[2]; [7],315.4 μg/act
same,MoL mean delivered dose,[2]; [7],332.8 μg/act
same,SoL mean delivered dose,[2]; [7],940.2 μg/act
same,TL mean delivered dose,[2]; [7],529.5 μg/act
same,EoL mean delivered dose,[2]; [8],618.4 μg/act
same,MoL mean delivered dose,[2]; [8],931.3 μg/act
same,SoL mean delivered dose,[2]; [8],950.3 μg/act
same,TL mean delivered dose,[2]; [8],833.3 μg/act
same,EoL mean delivered dose,[2]; [9],847.0 μg/act
same,MoL mean delivered dose,[2]; [9],906.3 μg/act
same,SoL mean delivered dose,[2]; [9],1027.9 μg/act
same,TL mean delivered dose,[2]; [9],927.0 μg/act
same,EoL mean delivered dose,[2]; [10],695.5 μg/act
same,MoL mean delivered dose,[2]; [10],784.8 μg/act
same,SoL mean delivered dose,[2]; [10],967.3 μg/act
same,TL mean delivered dose,[2]; [10],815.9 μg/act
same,EoL mean delivered dose,[2]; [11],735.1 μg/act
same,MoL mean delivered dose,[2]; [11],917.0 μg/act
same,SoL mean delivered dose,[2]; [11],876.4 μg/act
same,TL mean delivered dose,[2]; [11],842.9 μg/act
same,EoL mean delivered dose,[2]; [12],1694.4 μg/act
same,MoL mean delivered dose,[2]; [12],1590.1 μg/act
same,SoL mean delivered dose,[2]; [12],1782.4 μg/act
same,TL mean delivered dose,[2]; [12],1689.0 μg/act
same,EoL mean delivered dose,[2]; [13],119.8 μg/act
same,MoL mean delivered dose,[2]; [13],879.1 μg/act
same,SoL mean delivered dose,[2]; [13],2009.3 μg/act
same,TL mean delivered dose,[2]; [13],1255.0 μg/act
salbutamol sulfate,"MMAD values of aerosols, suitability","[3]; HFA-152a or HFO-1234ze(E), in-vitro",in an appropriate respirable range
same,FPF and MMAD in HFO-1234ze(E) compared with corresponding suspensions in HFA-152a,[3]; no ethanol,consistently produced greater FPFs and smaller MMADs
same,Mean FPF,[3]; [4],45.6%
same,Mean MMAD,[3]; [4],2.98 μm
same,Mean FPF,[3]; [6],57.0%
same,Mean MMAD,[3]; [6],2.98 μm
same,Mean FPF,[3]; [8],40.8%
same,Mean MMAD,[3]; [8],3.30 μm
same,Mean FPF,[3]; [10],52.4%
same,Mean MMAD,[3]; [10],3.12 μm
same,Mean FPF,[3]; [12],30.3%
same,Mean MMAD,[3]; [12],3.92 μm
same,Mean FPF,[3]; [13],36.4%
same,Mean MMAD,[3]; [13],3.67 μm
